One test deals with T1, RegA–RD complex (Dictyostelium discoideum, UniProt P05987+Q23917).
T1 construct: gene pkaR
T1 sequence (P05987 1-327): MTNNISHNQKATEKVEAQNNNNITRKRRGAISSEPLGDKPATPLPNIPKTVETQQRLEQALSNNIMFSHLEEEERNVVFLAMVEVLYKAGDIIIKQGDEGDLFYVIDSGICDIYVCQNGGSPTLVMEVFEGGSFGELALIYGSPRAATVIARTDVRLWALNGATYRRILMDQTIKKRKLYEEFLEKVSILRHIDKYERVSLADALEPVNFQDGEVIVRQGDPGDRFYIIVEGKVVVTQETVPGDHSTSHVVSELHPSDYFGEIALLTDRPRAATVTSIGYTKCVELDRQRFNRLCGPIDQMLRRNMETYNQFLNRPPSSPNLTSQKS
T1 sequence (Q23917 1-793): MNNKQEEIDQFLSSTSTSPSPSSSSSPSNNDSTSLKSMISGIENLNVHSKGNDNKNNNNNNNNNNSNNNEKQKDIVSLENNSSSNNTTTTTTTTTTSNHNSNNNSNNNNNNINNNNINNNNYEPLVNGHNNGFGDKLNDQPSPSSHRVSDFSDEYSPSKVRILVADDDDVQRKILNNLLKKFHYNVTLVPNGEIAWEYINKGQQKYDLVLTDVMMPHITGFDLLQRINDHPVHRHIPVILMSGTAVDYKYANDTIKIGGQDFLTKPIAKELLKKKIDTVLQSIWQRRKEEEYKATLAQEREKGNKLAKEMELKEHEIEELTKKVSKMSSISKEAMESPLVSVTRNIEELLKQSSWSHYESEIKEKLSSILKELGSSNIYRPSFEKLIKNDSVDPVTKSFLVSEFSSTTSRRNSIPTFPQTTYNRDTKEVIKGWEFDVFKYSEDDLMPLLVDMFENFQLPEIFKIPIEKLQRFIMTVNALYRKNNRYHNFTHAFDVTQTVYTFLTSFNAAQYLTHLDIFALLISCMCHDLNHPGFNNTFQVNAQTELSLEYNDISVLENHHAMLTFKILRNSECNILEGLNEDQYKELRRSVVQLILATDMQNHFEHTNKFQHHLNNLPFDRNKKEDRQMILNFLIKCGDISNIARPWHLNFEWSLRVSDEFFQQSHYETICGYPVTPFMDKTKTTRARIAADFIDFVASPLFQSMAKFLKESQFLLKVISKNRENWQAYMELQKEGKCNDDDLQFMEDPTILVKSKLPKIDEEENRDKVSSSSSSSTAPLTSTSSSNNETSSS
The note with it: cGMP 250 µM added to preformed 2fc-RD–RegA complex.

Another test concerns the target T2, PDE5–PKG complex (Homo sapiens, UniProt O76074).
T2 construct: gene PDE5A
The note with it: PDE5 with cGMP 100 µM, added to 2fg-PKG.

Data on one compound can be found in paper PMC8156604, “Development of Phosphodiesterase–Protein-Kinase Complexes as Novel Targets for Discovery of Inhibitors with Enhanced Specificity” (International Journal of Molecular Sciences, 2021).

Turning to `Nc1nc2c(ncn2[C@@H]2O[C@@H]3COP(=O)(O)O[C@H]3[C@H]2O)c(=O)[nH]1` [cGMP], the “fluorescence polarization, displacement of 2fluo-cAMP” value at RegA–RD complex is listed as “addition of cGMP (lilac plot) resulted in only a partial decrease in FP”. Further, on PDE5–PKG complex, the “fluorescence polarization, 2fluo-cGMP-bound PKG probe” value is “suggestive of processive hydrolysis of cGMP by PDE5–PKG composite site”.
